Measurements published in patent publication US11396516B2, “Tricyclic compounds as Cyp1 inhibitors” (The General Hospital Corporation, priority 2017, dated 2022).
Where two headings read alike, the source gives them in different places.

How the values were obtained:
[1] = test system: zebrafish embryos treated with DOX (cardiomyopathy phenotype); test: Zebrafish doxorubicin cardiomyopathy model (rescue from phenotype); format: in vivo; details: for rescue from the doxorubicin cardiomyopathy phenotype: zebrafish co-treated with doxorubicin, inhibitors at 10 μM; for protection against doxorubicin cardiotoxicity in the zebrafish model: co-treatment with doxorubicin
Experimental: Zebrafish embryos at 30 hours post-fertilization were treated with DOX at 100 μM in 96-well plates as previously described (Liu et al., 2014). Tested compounds were dissolved in DMSO and added at concentrations ranging from 3 nM to 10 μM (n=6 fish per dose; <1% DMSO v/v). The cardiomyopathy phenotype (decreased cardiac contraction, pericardial edema, and decreased tail blood flow) was assessed under light microscopy (5× magnification) at 40 hours post-treatment (hpt). Percent rescue from the cardiomyopathy phenotype was calculated for each concentration tested. Zebrafish were considered to be rescued from DOX-induced cardiomyopathy if all three features of the phenotype were absent. For the tested compounds, each dose-response experiment was repeated three times.
Dose-response curves were constructed using Prism (GraphPad).
Zebrafish were treated with DOX and assessed for the development of the cardiomyopathy phenotype (decreased cardiac contraction, pericardial edema, and decreased tail blood flow). Zebrafish were considered to be rescued if all three features of the cardiomyopathy phenotype were absent upon co-treatment with a tested compound. Referring to FIGS. 3-9, data are depicted as mean+/−standard error (n=6 fish per dose; each experiment performed in triplicate).

[2] = test system: HL-1 cardiomyocytes; test: Cultured HL-1 cardiomyocyte model (DOX-induced apoptosis, viability); format: cell-based, mouse; details: Mus musculus, HL-1; doxorubicin 5 μM, viability after 18 hours, CellTiter-Glo; read-out: EC50 in HL-1 Cells
Experimental: The cardiomyocyte cell line HL-1 derived from mouse atrial tumor was a gift from W. Claycomb. Cells were cultured as previously published (Claycomb et al., 1998) and treated with doxorubicin 5 μM with or without the tested compounds at a concentration up to 50 μM. Viability was assessed after 18 hours of using a CellTiter-Glo Luminescent assay from Promega. Each dose-response experiment was repeated three times.
Compounds were tested in HL-1 cultured cardiomyocytes to assess for efficacy in preventing DOX-induced apoptosis. Cell viability was assessed as described in the materials and methods section.

[3] = target: CYP1A (Homo sapiens (Human), UniProt P05177); test: CYP inhibition assay, human liver microsomes; format: biochemical
Experimental: (§1) CYP inhibition experiments were performed by Cerep Panlabs (Eurofins) using human liver microsomes and the following substrates: phenacetin 10 μM (CYP1A), buproprion 100 μM (CYP2B6), paclitaxel 10 μM (CYP2C8), diclofenac 10 μM (CYP 2C9), omeprazole 0.5 μM (CYP2C19), dextromethorphan 5 μM (CYP2D6), and testosterone 50 μM (CYP3A). Metabolites of each substrate were measured using LC-MS/MS. Mean percent inhibition was calculated using the following reference inhibitors: furafylline (CYP1A), clopidogrel (CYP2B6), montelukast (CYP2C8), sulfaphenazole (CYP2C9), oxybutynin (CYP2C19), quinidine (CYP2D6), and ketoconazole (CYP3A). […] All concentrations were tested in duplicate to obtain the final results.
(§2) The ability of the tested compounds to inhibit a panel of CYP enzymes in vitro was assessed using a series of human liver microsome assays.

[4] = target: CYP2C19 (Homo sapiens (Human), UniProt P33261); test: CYP inhibition assay, human liver microsomes; format: biochemical; details: omeprazole 0.5 μM, reference oxybutynin
Experimental: as §1, §2

[5] = target: CYP2C8 (Homo sapiens (Human), UniProt P10632); test: CYP inhibition assay, human liver microsomes; format: biochemical; details: paclitaxel 10 μM, reference montelukast
Experimental: as §1, §2

[6] = target: CYP2C9 (Homo sapiens (Human), UniProt P11712); test: CYP inhibition assay, human liver microsomes; format: biochemical; details: diclofenac 10 μM, reference sulfaphenazole
Experimental: as §1, §2

[7] = target: CYP2D6 (Homo sapiens (Human), UniProt P10635); test: CYP inhibition assay, human liver microsomes; format: biochemical; details: dextromethorphan 5 μM, reference quinidine
Experimental: as §1, §2

[8] = target: CYP3A (Homo sapiens, UniProt P08684); test: CYP inhibition assay, human liver microsomes; format: biochemical; details: testosterone 50 μM, reference ketoconazole
Experimental: as §1, §2

[9] = test system: CYP1A; test: Zebrafish proteomics; format: in vivo; details: zebrafish embryos, visnagin 20 μM
Experimental: (§3) The proteomics analysis was carried out as described in the material and methods section. All protein abundance values are normalized to DMSO-treated control zebrafish. * p<0.05 compared to the DMSO control using the Benjamini-Hochberg method of correcting for multiple hypotheses.

[10] = test system: cyp1b1; test: Zebrafish proteomics; format: in vivo; details: zebrafish embryos, visnagin 20 μM
Experimental: as §3

[11] = test system: cyp1c1; test: Zebrafish proteomics; format: in vivo; details: zebrafish embryos, visnagin 20 μM
Experimental: as §3

[12] = test system: dhrs13l1; test: Zebrafish proteomics; format: in vivo; details: zebrafish embryos, visnagin 20 μM
[13] = test system: rad9a; test: Zebrafish proteomics; format: in vivo; details: zebrafish embryos, visnagin 20 μM
[14] = test system: sqstm1; test: Zebrafish proteomics; format: in vivo; details: zebrafish embryos, visnagin 20 μM
[15] = test system: thbs1b; test: Zebrafish proteomics; format: in vivo; details: zebrafish embryos, visnagin 20 μM
[16] = test system: LOC100332237; test: Zebrafish proteomics; format: in vivo; details: zebrafish embryos, visnagin 20 μM
[17] = test system: slc2a1a; test: Zebrafish proteomics; format: in vivo; details: zebrafish embryos, visnagin 20 μM
[18] = test system: gstp2; test: Zebrafish proteomics; format: in vivo; details: zebrafish embryos, visnagin 20 μM
[19] = test system: zebrafish embryos; test: Zebrafish toxicity in the absence of doxorubicin (TD50); details: without doxorubicin
Experimental: Dose-response curves were constructed using Prism (GraphPad). Raw data representing percent rescue at each dose was log-transformed, and EC50 values were calculated using nonlinear regression analysis. The median toxic dose (TD50) was defined for each compound by assessing for pericardial edema, non-specific deformities, and death in the absence of doxorubicin treatment (data not shown). Concentrations at and above the TD50 (toxic dose) were excluded from dose-response curves.

[20] = Danio rerio, rescue from DOX (100 μM) cardiomyopathy phenotype, 40 hours post-treatment, read-out: EC50 is zebrafish
[21] = Danio rerio, rescue from DOX cardiomyopathy phenotype, read-out: EC50 in the zebrafish DOX model

Chain of CYP2C19 (P33261 whole entry): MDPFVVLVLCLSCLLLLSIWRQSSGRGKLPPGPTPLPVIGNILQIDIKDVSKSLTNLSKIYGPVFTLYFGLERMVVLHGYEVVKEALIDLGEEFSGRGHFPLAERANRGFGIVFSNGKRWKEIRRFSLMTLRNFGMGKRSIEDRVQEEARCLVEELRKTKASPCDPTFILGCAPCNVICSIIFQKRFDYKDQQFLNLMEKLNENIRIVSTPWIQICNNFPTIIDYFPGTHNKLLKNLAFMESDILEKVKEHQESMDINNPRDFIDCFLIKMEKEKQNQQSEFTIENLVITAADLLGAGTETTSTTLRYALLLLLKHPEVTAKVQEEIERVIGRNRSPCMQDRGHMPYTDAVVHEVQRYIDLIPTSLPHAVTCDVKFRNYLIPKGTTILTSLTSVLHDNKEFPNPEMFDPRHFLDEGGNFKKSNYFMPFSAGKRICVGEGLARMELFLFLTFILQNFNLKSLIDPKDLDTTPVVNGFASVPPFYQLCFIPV
Chain of CYP2D6 (P10635 whole entry): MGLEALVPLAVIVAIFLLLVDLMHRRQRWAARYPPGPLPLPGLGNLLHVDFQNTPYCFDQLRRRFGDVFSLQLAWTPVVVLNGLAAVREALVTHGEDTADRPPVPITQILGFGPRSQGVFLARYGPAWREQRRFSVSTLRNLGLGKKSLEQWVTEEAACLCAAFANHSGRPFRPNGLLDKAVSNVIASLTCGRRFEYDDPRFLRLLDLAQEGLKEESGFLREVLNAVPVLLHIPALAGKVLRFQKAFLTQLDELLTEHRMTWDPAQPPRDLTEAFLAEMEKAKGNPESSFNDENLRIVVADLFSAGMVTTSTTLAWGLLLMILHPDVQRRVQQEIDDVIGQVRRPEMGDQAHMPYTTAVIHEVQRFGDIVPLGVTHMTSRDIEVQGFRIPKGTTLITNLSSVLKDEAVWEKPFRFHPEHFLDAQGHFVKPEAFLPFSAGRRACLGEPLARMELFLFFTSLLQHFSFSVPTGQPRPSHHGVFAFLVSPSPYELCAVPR
Chain of CYP3A (P08684 2-503 limits assumed): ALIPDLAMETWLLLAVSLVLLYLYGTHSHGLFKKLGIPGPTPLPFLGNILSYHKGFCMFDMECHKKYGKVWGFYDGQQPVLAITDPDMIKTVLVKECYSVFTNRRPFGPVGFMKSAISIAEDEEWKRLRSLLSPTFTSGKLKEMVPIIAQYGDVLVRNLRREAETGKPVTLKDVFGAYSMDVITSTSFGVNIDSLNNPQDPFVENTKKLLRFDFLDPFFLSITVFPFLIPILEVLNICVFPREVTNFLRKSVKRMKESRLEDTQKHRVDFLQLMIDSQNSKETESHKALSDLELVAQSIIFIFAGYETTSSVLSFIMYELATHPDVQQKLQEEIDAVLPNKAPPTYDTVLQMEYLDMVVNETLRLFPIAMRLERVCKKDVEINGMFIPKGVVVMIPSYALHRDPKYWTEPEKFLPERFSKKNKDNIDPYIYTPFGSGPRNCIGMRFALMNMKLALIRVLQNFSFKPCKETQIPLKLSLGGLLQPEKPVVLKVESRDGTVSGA
Chain of CYP1A (Homo sapiens (Human), UniProt P05177) (P05177 whole entry): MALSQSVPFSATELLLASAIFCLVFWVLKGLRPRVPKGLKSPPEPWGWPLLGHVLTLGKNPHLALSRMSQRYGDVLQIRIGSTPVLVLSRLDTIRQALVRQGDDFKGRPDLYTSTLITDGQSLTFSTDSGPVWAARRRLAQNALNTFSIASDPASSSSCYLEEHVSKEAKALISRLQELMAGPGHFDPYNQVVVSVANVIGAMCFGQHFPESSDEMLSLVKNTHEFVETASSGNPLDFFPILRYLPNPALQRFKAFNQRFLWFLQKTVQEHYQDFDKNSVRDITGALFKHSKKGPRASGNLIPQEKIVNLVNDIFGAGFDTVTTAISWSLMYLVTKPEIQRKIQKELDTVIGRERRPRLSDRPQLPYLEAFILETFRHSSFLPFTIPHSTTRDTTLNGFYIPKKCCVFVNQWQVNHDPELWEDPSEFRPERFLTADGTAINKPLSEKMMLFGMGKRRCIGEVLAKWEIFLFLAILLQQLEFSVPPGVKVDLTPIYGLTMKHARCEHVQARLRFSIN
Chain of CYP2C9 (P11712 whole entry): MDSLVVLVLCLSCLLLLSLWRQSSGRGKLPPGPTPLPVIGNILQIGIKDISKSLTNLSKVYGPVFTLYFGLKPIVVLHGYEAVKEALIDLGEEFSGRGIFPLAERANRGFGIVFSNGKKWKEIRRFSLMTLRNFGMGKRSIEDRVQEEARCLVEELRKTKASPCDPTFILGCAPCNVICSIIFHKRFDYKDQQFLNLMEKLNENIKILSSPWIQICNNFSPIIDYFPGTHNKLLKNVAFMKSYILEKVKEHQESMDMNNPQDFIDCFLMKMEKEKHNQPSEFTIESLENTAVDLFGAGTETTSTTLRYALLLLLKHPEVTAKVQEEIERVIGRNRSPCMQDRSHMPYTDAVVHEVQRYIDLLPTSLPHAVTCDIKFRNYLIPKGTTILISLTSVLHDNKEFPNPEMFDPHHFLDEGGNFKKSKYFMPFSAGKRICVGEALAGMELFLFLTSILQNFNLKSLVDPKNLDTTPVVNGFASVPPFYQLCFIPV
Chain of CYP2C8 (P10632 whole entry): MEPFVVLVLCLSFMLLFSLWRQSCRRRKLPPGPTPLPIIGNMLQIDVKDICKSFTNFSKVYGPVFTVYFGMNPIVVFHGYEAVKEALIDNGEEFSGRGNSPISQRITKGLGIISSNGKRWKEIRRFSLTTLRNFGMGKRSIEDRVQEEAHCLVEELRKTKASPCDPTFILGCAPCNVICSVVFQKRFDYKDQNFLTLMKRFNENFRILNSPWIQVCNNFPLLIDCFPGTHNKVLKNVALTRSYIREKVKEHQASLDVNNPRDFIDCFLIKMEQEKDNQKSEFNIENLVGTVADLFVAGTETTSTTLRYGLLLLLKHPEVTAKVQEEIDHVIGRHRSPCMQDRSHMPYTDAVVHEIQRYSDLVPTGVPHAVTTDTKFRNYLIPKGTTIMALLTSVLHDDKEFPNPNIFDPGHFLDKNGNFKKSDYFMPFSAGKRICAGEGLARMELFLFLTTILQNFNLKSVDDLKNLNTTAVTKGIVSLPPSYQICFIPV

O=c1cc(-c2ccccc2)oc2c1ccc1ccccc12 [α-naphthoflavone]
EC50 ([1]; rescue from DOX (100 μM) cardiomyopathy phenotype, 40 hours post-treatment, read-out: EC50 is zebrafish): 0.293 µM
rescue from the doxorubicin cardiomyopathy phenotype [1]: significant rescue
protection against doxorubicin cardiotoxicity in the zebrafish model [1]: prevented DOX cardiomyopathy

Cc1ccccc1N=Nc1ccc(NC(=O)c2ccnn2C)c(C)c1 [CH-233191]
rescue from the doxorubicin cardiomyopathy phenotype [1]: significant rescue
protection against doxorubicin cardiotoxicity in the zebrafish model [1]: prevented DOX cardiomyopathy

CC(C)(C)OC(=O)NCCOc1c2ccoc2cc2oc(=S)ccc12 [Example 7, tert-butyl (2-((7-thioxo-7H-furo[3,2-g]chromen-4-yl)oxy)ethyl)carbamate]
EC50 [1, 20]: 0.258 µM

O=C(NCCCOc1c2ccoc2cc2oc(=O)ccc12)Oc1ccccc1 [Example 6]
EC50 [1, 20]: 0.033 µM
EC50 [2]: > 50 µM

CC(C)(C)OC(=O)N1CC(COc2c3ccoc3cc3oc(=O)ccc23)C1 [Example 4, tert-butyl 3-(((7-oxo-7H-furo[3,2-g]chromen-4-yl)oxy)methyl)azetidine-1-carboxylate]
EC50 [1, 20]: 0.01 µM
EC50 [2]: > 50 µM

O=c1ccc2c(OCC3CO3)c3ccoc3cc2o1 (stereo not drawn) [Example 1, 4-(oxiran-2-ylmethoxy)-7H-furo[3,2-g]chromen-7-one]
EC50 [1, 20]: 0.052 µM
EC50 [2]: > 50 µM

CCSC(=O)NCCOc1c2ccoc2cc2oc(=O)ccc12 [Example 5, S-ethyl (2-((7-oxo-7H-furo[3,2-g]chromen-4-yl)oxy)ethyl)carbamothioate]
EC50 [1, 20]: 0.003 µM

CC(C)(C)OC(=O)NCCOc1c2ccoc2cc2oc(=O)ccc12 [Example 3]
EC50 [1, 20]: 0.003 µM
EC50 [2]: > 50 µM

c1cc2ccc3cccc4ccc(c1)c2c34 [pyrene]
EC50 [1, 21]: 3.7 µM
rescue from the doxorubicin cardiomyopathy phenotype [1]: significant rescue
protection against doxorubicin cardiotoxicity in the zebrafish model [1]: prevented DOX cardiomyopathy

COc1cc(C=Cc2ccc(OC)cc2OC)cc(OC)c1 [2,4,3′,5′-tetramethoxystilbene]
EC50 [1, 21]: 8.6 µM
rescue from the doxorubicin cardiomyopathy phenotype [1]: significant rescue
protection against doxorubicin cardiotoxicity in the zebrafish model [1]: prevented DOX cardiomyopathy

4-ethoxy-7-methyl-5H-furo[3,2-g][1]-benzopyran-5-one [visnagin]
IC50 [3]: 0.24 µM
Mean % Inhibition CYP2C19 [4]: 1.2%
Mean % Inhibition CYP2C8 [5]: 8.1%
Mean % Inhibition CYP2C9 [6]: 1.7%
Mean % Inhibition CYP2D6 [7]: 9.9%
Mean % Inhibition CYP3A [8]: 4.2%
Protein Abundance (Normalized to DMSO) cyp1a ([9]; 40 hours post-treatment): 0.84
DOX/DOX+ visnagin protein abundance ratio cyp1a [9]: 7.03
Protein Abundance (Normalized to DMSO) cyp1b1 ([10]; 40 hours post-treatment): 0.94
DOX/DOX+ visnagin protein abundance ratio cyp1b1 [10]: 5.31
Protein Abundance (Normalized to DMSO) cyp1c1 ([11]; 40 hours post-treatment): 0.80
DOX/DOX+ visnagin protein abundance ratio cyp1c1 [11]: 7.57
Protein Abundance (Normalized to DMSO) dhrs13l1 ([12]; 40 hours post-treatment): 0.89
DOX/DOX+ visnagin protein abundance ratio dhrs13l1 [12]: 2.79
Protein Abundance (Normalized to DMSO) rad9a ([13]; 40 hours post-treatment): 1.15
DOX/DOX+ visnagin protein abundance ratio rad9a [13]: 2.50
Protein Abundance (Normalized to DMSO) sqstm1 ([14]; 40 hours post-treatment): 0.98
DOX/DOX+ visnagin protein abundance ratio sqstm1 [14]: 2.43
Protein Abundance (Normalized to DMSO) thbs1b ([15]; 40 hours post-treatment): 0.89
DOX/DOX+ visnagin protein abundance ratio thbs1b [15]: 2.39
Protein Abundance (Normalized to DMSO) LOC100332237 ([16]; 40 hours post-treatment): 0.96
DOX/DOX+ visnagin protein abundance ratio LOC100332237 [16]: 2.34
Protein Abundance (Normalized to DMSO) slc2a1a ([17]; 40 hours post-treatment): 0.83
DOX/DOX+ visnagin protein abundance ratio slc2a1a [17]: 2.23
Protein Abundance (Normalized to DMSO) gstp2 ([18]; 40 hours post-treatment): 0.89
DOX/DOX+ visnagin protein abundance ratio gstp2 [18]: 2.14

COC(=O)c1csc(C(=O)c2c[nH]c3ccccc23)n1 [ITE, methyl 2-(1H-indole-3-carbonyl)-1,3-thiazole-4-carboxylate]
toxicity to zebrafish embryos without doxorubicin [19]: not toxic
